Results taken from patent US9511134B2, “Inducing immune responses to influenza virus using polypeptide and nucleic acid compositions” (priority 2006, dated 2016).
Where no end group is shown, it is not given here.

What was measured:
Experiment in all cases: biochemical
Format in all cases: binding
[1] = target: T1, DRB1*0101 (Homo sapiens, UniProt P01903+P01911, A100R/D57E/F55L/F60I/F76Y/I96L/L162R/M171V/P40L/Q125E/R42F/V115G/Y59C); conditions: IC50 nM to purified HLA DRB1*0101
T1 construct: made in house; host or cells: EBV-transformed homozygous human B cell lines, transfected fibroblasts or single-allele 721.221 transfectants

[2] = target: T2, DRB1*0401 (Homo sapiens, UniProt P01903+P01911, A100K/A169T/F76Y/I96L/K127E/L162R/M171V/N62H/P40V/Q125Y/R42H/S133A/S149N/S66Y/V115G/V209L/W38E); conditions: read-out: IC50 nM to purified HLA DRB1*0401
T2 construct: made in house; host or cells: EBV-transformed homozygous human B cell lines, transfected fibroblasts or single-allele 721.221 transfectants

[3] = target: T3, DRB1*1501 (Homo sapiens, UniProt P01903+P01911); conditions: read-out: IC50 nM to purified HLA DRB1*1501
T3 construct: made in house; host or cells: EBV-transformed homozygous human B cell lines, transfected fibroblasts or single-allele 721.221 transfectants

[4] = target: DRB1*1302 (Homo sapiens, UniProt P01903+P01911, A100E/A169T/K41T/L162R/M171V/P40S/Q125H/Q178H/Q39Y/Q99D/R42S/S66N/T262R/V115G/W38E/Y61H); conditions: read-out: IC50 nM to purified HLA DRB1*1302
[5] = target: T4, DRB1*0301 (Homo sapiens, UniProt P01903+P01911, A100K/A102G/A103R/A169T/F55Y/I96L/K41T/L162R/M171V/P40S/Q125H/Q178H/Q39Y/R42S/S66N/T106N/T262R/W38E/Y61H)
T4 construct: made in house; host or cells: EBV-transformed homozygous human B cell lines, transfected fibroblasts or single-allele 721.221 transfectants
T4 sequence (P01903 26-254, other chains not shown): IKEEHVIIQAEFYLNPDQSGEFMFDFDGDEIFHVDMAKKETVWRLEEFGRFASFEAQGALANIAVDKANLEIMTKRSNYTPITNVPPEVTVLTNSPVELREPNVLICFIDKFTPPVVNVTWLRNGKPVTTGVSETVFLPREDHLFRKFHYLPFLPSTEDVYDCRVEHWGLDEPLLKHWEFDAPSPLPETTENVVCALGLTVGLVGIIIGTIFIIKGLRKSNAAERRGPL

Chain of DRB1*1302 (P01903 26-254 limits assumed, other chains not shown): as the sequence (P01903 26-254, other chains not shown) above

## CC[C@H](C)[C@H](NC(=O)[C@H](CC(C)C)NC(=O)[C@H](Cc1c[nH]c2ccccc12)NC(=O)[C@@H](NC(=O)[C@@H](NC(=O)[C@H](CC(N)=O)NC(=O)[C@H](CCCNC(=N)N)NC(=O)[C@H](Cc1ccccc1)NC(=O)[C@H](Cc1ccccc1)NC(=O)[C@H](CO)NC(=O)[C@H](CO)NC(=O)[C@@H](N)CCCCN)C(C)C)C(C)C)C(=O)N[C@@H](CCCCN)C(=O)N[C@@H](CCCCN)C(=O)N[C@@H](CC(N)=O)C(=O)O [Flu.HA.156]
[1]
  IC50: 46 nM
[2]
  IC50: 474 nM
[3]
  IC50: 832 nM
[4]
  IC50: 20 nM

## CC[C@H](C)[C@H](NC(=O)[C@H](Cc1ccc(O)cc1)NC(=O)[C@@H](NC(=O)[C@@H](NC(=O)[C@@H]1CCCN1C(=O)[C@H](CC(N)=O)NC(=O)[C@H](CCC(N)=O)NC(=O)[C@H](Cc1ccc(O)cc1)NC(=O)[C@H](CC(C)C)NC(=O)[C@H](CCCCN)NC(=O)[C@@H](NC(=O)[C@@H](N)CCC(N)=O)[C@@H](C)O)[C@@H](C)O)[C@@H](C)O)C(=O)N[C@@H](CO)C(=O)N[C@H](C(=O)NCC(=O)N[C@H](C(=O)O)[C@@H](C)O)C(C)C [Flu.HA.203]
[3]
  IC50: 60 nM
[4]
  IC50: 18 nM

## CSCC[C@H](NC(=O)[C@H](CC(C)C)NC(=O)[C@@H](NC(=O)[C@H](CC(C)C)NC(=O)[C@@H](N)CC(C)C)C(C)C)C(=O)N[C@@H](CCC(=O)O)C(=O)N[C@@H](CC(N)=O)C(=O)N[C@@H](CCC(=O)O)C(=O)N[C@@H](CCCNC(=N)N)C(=O)N[C@H](C(=O)N[C@@H](CC(C)C)C(=O)N[C@@H](CC(=O)O)C(=O)N[C@@H](Cc1ccccc1)C(=O)N[C@@H](Cc1c[nH]cn1)C(=O)N[C@@H](CC(=O)O)C(=O)O)[C@@H](C)O [Flu.HA.444]
[5]
  IC50: 64 nM

## CC[C@H](C)[C@H](NC(=O)[C@H](CC(C)C)NC(=O)[C@H](CC(=O)O)NC(=O)[C@H](CC(=O)O)NC(=O)[C@H](CCCCN)NC(=O)[C@H](CC(C)C)NC(=O)CNC(=O)[C@H](C)NC(=O)[C@@H](N)CO)C(=O)N[C@@H](CCC(=O)O)C(=O)N[C@@H](CC(N)=O)C(=O)N[C@@H](CC(C)C)C(=O)N[C@@H](CCC(N)=O)C(=O)N[C@@H](C)C(=O)N[C@@H](Cc1ccc(O)cc1)C(=O)O [Flu.M1.229]
[5]
  IC50: 64 nM

## CC[C@H](C)[C@H](N)C(=O)NCC(=O)N[C@@H](CC(N)=O)C(=O)N[C@@H](CCSC)C(=O)N[C@H](C(=O)N[C@@H](CO)C(=O)N[C@H](C(=O)N[C@@H](Cc1c[nH]c2ccccc12)C(=O)N[C@H](C(=O)N[C@@H](CO)C(=O)N[C@@H](Cc1c[nH]cn1)C(=O)N[C@@H](CO)C(=O)N[C@H](C(=O)N[C@@H](Cc1c[nH]cn1)C(=O)N[C@H](C(=O)NCC(=O)O)[C@@H](C)O)[C@@H](C)CC)C(C)C)[C@@H](C)CC)[C@@H](C)CC [Flu.NA.26]
[1]
  IC50: 1050 nM
[3]
  IC50: 81 nM
[4]
  IC50: 5950 nM

## CC(C)C[C@H](NC(=O)[C@H](C)NC(=O)CNC(=O)[C@H](CCC(N)=O)NC(=O)[C@@H](NC(=O)[C@H](CC(C)C)NC(=O)[C@H](Cc1ccccc1)NC(=O)[C@H](Cc1ccccc1)NC(=O)[C@@H](NC(=O)[C@@H](N)CCCNC(=N)N)[C@@H](C)O)[C@@H](C)O)C(=O)N[C@@H](CC(C)C)C(=O)N[C@@H](CC(N)=O)C(=O)N[C@@H](CC(=O)O)C(=O)N[C@@H](CCCCN)C(=O)N[C@@H](Cc1c[nH]cn1)C(=O)N[C@@H](CO)C(=O)O [Flu.NA.110]
[1]
  IC50: 16 nM
[2]
  IC50: 251 nM
[3]
  IC50: 790 nM
[4]
  IC50: 3210 nM

## CC[C@H](C)[C@H](NC(=O)[C@H](CC(N)=O)NC(=O)[C@H](CC(N)=O)NC(=O)[C@H](CCCNC(=N)N)NC(=O)[C@H](Cc1c[nH]c2ccccc12)NC(=O)[C@H](CO)NC(=O)[C@H](CCCCN)NC(=O)[C@@H](NC(=O)[C@@H](NC(=O)[C@H](CC(=O)O)NC(=O)[C@@H](NC(=O)[C@@H](NC(=O)[C@@H](NC(=O)CNC(=O)[C@H](CC(N)=O)NC(=O)[C@@H](N)Cc1ccc(O)cc1)[C@@H](C)CC)[C@@H](C)CC)[C@@H](C)O)[C@@H](C)O)[C@@H](C)CC)C(=O)O [Flu.NA.188]
[3]
  IC50: 31 nM
[4]
  IC50: 370 nM

## CC(C)C[C@H](NC(=O)[C@H](CCC(=O)O)NC(=O)[C@@H](NC(=O)[C@H](CO)NC(=O)[C@H](CCCCN)NC(=O)[C@@H](N)C(C)C)C(C)C)C(=O)N[C@@H](CC(=O)O)C(=O)N[C@@H](C)C(=O)N1CCC[C@H]1C(=O)N[C@@H](CC(N)=O)C(=O)N[C@@H](Cc1ccc(O)cc1)C(=O)N[C@@H](Cc1c[nH]cn1)C(=O)N[C@@H](Cc1ccc(O)cc1)C(=O)N[C@@H](CCC(=O)O)C(=O)N[C@@H](CCC(=O)O)C(=O)O [Flu.NA.244]
[5]
  IC50: 65 nM
[4]
  IC50: 197 nM

## CC(C)C[C@H](NC(=O)[C@H](CO)NC(=O)[C@H](CCCCN)NC(=O)[C@H](CCC(N)=O)NC(=O)[C@H](CC(=O)O)NC(=O)[C@H](CCCNC(=N)N)NC(=O)[C@H](CCCNC(=N)N)NC(=O)[C@H](CC(C)C)NC(=O)[C@H](CCCNC(=N)N)NC(=O)[C@H](CC(=O)O)NC(=O)[C@@H](N)CC(C)C)C(=O)N[C@@H](CCCNC(=N)N)C(=O)NCC(=O)N[C@@H](CCCNC(=N)N)C(=O)NCC(=O)O [Flu.NS1.36]
[1]
  IC50: 800 nM
[5]
  IC50: 83 nM

## CC[C@H](C)[C@H](NC(=O)[C@H](CCCNC(=N)N)NC(=O)[C@H](CCC(=O)O)NC(=O)[C@@H](N)C(C)C)C(=O)N[C@@H](CC(C)C)C(=O)N[C@@H](CCCCN)C(=O)N[C@@H](CCC(=O)O)C(=O)N[C@@H](CCC(=O)O)C(=O)N[C@@H](CO)C(=O)N[C@@H](CC(=O)O)C(=O)N[C@@H](CCC(=O)O)C(=O)N[C@@H](C)C(=O)N[C@@H](CC(C)C)C(=O)N[C@@H](CCCCN)C(=O)N[C@@H](CCSC)C(=O)O [Flu.NS1.68]
[1]
  IC50: 5190 nM
[2]
  IC50: 679 nM
[5]
  IC50: 1050 nM
[4]
  IC50: 5060 nM

## CC[C@H](C)[C@H](NC(=O)[C@H](CC(C)C)NC(=O)[C@H](CCSC)NC(=O)[C@H](CC(C)C)NC(=O)[C@H](Cc1c[nH]c2ccccc12)NC(=O)[C@H](CC(=O)O)NC(=O)[C@H](CCCNC(=N)N)NC(=O)[C@H](CO)NC(=O)[C@H](CCSC)NC(=O)[C@H](CCC(=O)O)NC(=O)[C@H](CCC(=O)O)NC(=O)[C@@H](N)CC(C)C)C(=O)N1CCC[C@H]1C(=O)N[C@@H](CCCCN)C(=O)N[C@@H](CCC(N)=O)C(=O)O [Flu.NS1.98]
[5]
  IC50: 170 nM

## CC(C)C[C@H](NC(=O)[C@H](CCCCN)NC(=O)[C@H](CCCNC(=N)N)NC(=O)[C@H](CO)NC(=O)[C@H](CCC(=O)O)NC(=O)[C@H](C)NC(=O)[C@H](CO)NC(=O)[C@H](Cc1ccccc1)NC(=O)CNC(=O)[C@H](CCC(=O)O)NC(=O)[C@@H](N)CC(C)C)C(=O)N[C@@H](CC(C)C)C(=O)N[C@@H](CC(C)C)C(=O)N[C@H](C(=O)N[C@H](C(=O)O)C(C)C)C(C)C [Flu.PA.658]
[1]
  IC50: 12 nM
[2]
  IC50: 861 nM
[5]
  IC50: 661 nM
[4]
  IC50: 2270 nM

## CC[C@H](C)[C@H](NC(=O)[C@@H](N)CC(C)C)C(=O)N[C@@H](CC(=O)O)C(=O)N[C@@H](Cc1ccccc1)C(=O)N[C@@H](CC(C)C)C(=O)N[C@@H](CCCCN)C(=O)N[C@@H](CC(=O)O)C(=O)N[C@H](C(=O)N[C@@H](CCSC)C(=O)N[C@@H](CCC(=O)O)C(=O)N[C@@H](CO)C(=O)N[C@@H](CCSC)C(=O)N[C@@H](CC(=O)O)C(=O)N[C@@H](CCCCN)C(=O)N[C@@H](CCC(=O)O)C(=O)O)C(C)C [Flu.PB1.166]
[5]
  IC50: 120 nM

## CSCC[C@H](NC(=O)[C@H](CCCCN)NC(=O)[C@H](CO)NC(=O)[C@@H](N)C(C)C)C(=O)NCC(=O)N[C@H](C(=O)N[C@@H](CC(=O)O)C(=O)N[C@@H](CCC(=O)O)C(=O)N[C@@H](Cc1ccc(O)cc1)C(=O)N[C@@H](CO)C(=O)N[C@@H](CO)C(=O)N[C@H](C(=O)N[C@@H](CCC(=O)O)C(=O)N[C@@H](CCCNC(=N)N)C(=O)N[C@H](C(=O)O)C(C)C)[C@@H](C)O)C(C)C [Flu.PB2.483]
[5]
  IC50: 1020 nM
[4]
  IC50: 1850 nM

## CC[C@H](C)[C@H](NC(=O)[C@H](CC(C)C)NC(=O)[C@@H](N)Cc1ccccc1)C(=O)N[C@@H](CC(C)C)C(=O)NCC(=O)N[C@@H](CCCCN)C(=O)N[C@@H](CCC(=O)O)C(=O)N[C@@H](CC(=O)O)C(=O)N[C@@H](CCCNC(=N)N)C(=O)N[C@@H](CCCNC(=N)N)C(=O)N[C@@H](Cc1ccc(O)cc1)C(=O)NCC(=O)N1CCC[C@H]1C(=O)N[C@@H](C)C(=O)N[C@@H](CC(C)C)C(=O)O [Flu.PB2.697]
[1]
  IC50: 8390 nM
[2]
  IC50: 1740 nM
[5]
  IC50: 565 nM
[4]
  IC50: 118 nM

## CC[C@H](C)[C@H](NC(=O)[C@H](CCCNC(=N)N)NC(=O)[C@H](CCCCN)NC(=O)[C@@H](NC(=O)[C@H](C)NC(=O)[C@@H](NC(=O)[C@H](CCC(N)=O)NC(=O)[C@H](CO)NC(=O)[C@H](CC(=O)O)NC(=O)[C@@H](NC(=O)[C@H](CC(C)C)NC(=O)[C@@H](NC(=O)[C@H](CO)NC(=O)[C@H](CO)NC(=O)[C@@H](N)CC(=O)O)[C@@H](C)CC)[C@@H](C)O)[C@@H](C)O)[C@@H](C)O)C(=O)O [Flu.PB2.743]
[5]
  IC50: 36 nM

## CEQIADSQHRSHRQM [Flu.M1.154]
[5]
  IC50: 804 nM

## MEWLKTRPILSPLTK [Flu.M1.46]
[1]
  IC50: 52 nM
[2]
  IC50: 528 nM
[3]
  IC50: 111 nM
[4]
  IC50: 3870 nM

## TRPILSPLTKGILGF [Flu.M1.51]
[1]
  IC50: 423 nM
[3]
  IC50: 140 nM
[4]
  IC50: 292 nM
